From patent US6960614B2, “Oxygenated esters of 4-lodo phenylamino benzhydroxamic acids” (Warner-Lambert Company, priority 2000, dated 2005)

Legend:
MEK = assay: Cellular Assay for Measuring MEK Inhibition (inhibition of ERK phosphorylation in C26 cells, Western blot); assay type: cell-based, murine; conditions: inhibition of ERK phosphorylation in murine colon 26 (C26) carcinoma cells; determined graphically from dose response curve
Method in brief: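 Exponentially growing murine colon 26 (C26) carcinoma cells treated with varying compound concentrations at 37° C, then lysed. Western blot with antibody to dually phosphorylated ERK1/ERK2; blots stripped and re-probed for total ERK1/ERK2.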

Compound	IC50 (MEK)	melting point
O=C(NOC[C@@H]1C[C@H]1CO)c1ccc(F)c(F)c1Nc1ccc(I)cc1F (relative stereo) [Example 74, 3,4-Difluoro-2-(2-fluoro-4-iodo-phenylamino)-N-[trans-(2-hydroxymethyl-cyclopropylmethoxy)]-benzamide]	18 nM	128.5 to 128.7 °C
O=C(NOC[C@@H]1C[C@H]1CO)c1cc(Cl)c(F)c(F)c1Nc1ccc(I)cc1F (relative stereo) [Example 75, 5-Chloro-3,4-difluoro-2-(2-fluoro-4-iodo-phenylamino)-N-[trans-(2-hydroxymethyl-cyclopropylmethoxy)]-benzamide]	42 nM	152.5 to 153.1 °C
Cc1cc(I)ccc1Nc1c(C(=O)NOCCO)cc(F)c(F)c1F [Example 1, 3,4,5-Trifluoro-N-(2-hydroxy-ethoxy)-2-(4-iodo-2-methyl-phenylamino)-benzamide]	8 nM	205 to 207 °C (dec.)
Cc1cc(I)ccc1Nc1cc(F)c(F)cc1C(=O)NOCCO [Example 12, 4,5-Difluoro-N-(2-hydroxy-ethoxy)-2-(4-iodo-2-methyl-phenylamino)-benzamide]	22 nM	151.2 to 152.5 °C
Cc1cc(I)ccc1Nc1cc(F)c(Br)cc1C(=O)NOCCO [Example 16, 5-Bromo-4-fluoro-N-(2-hydroxy-ethoxy)-2-(4-iodo-2-methyl-phenylamino)-benzamide]	20 nM	154.4 to 156.4 °C
O=C(NOCCO)c1ccc(F)c(F)c1Nc1ccc(Br)cc1F [Example 22, 2-(4-Bromo-2-fluoro-phenylamino)-3,4-difluoro-N-(2-hydroxy-ethoxy)-benzamide]	7.7 nM	146.1 to 146.4 °C
O=C(NOCCO)c1cc(F)c(F)cc1Nc1ccc(Br)cc1F [Example 23, 2-(4-Bromo-2-fluoro-phenylamino)-4,5-difluoro-N-(2-hydroxy-ethoxy)-benzamide]	32 nM	190.8 to 192.5 °C
O=C(NOCCO)c1ccc(F)c(F)c1Nc1ccc(Cl)cc1F [Example 24, 2-(4-Chloro-2-fluoro-phenylamino)-3,4-difluoro-N-(2-hydroxy-ethoxy)-benzamide]	26 nM	142.1 to 142.5 °C
O=C(NOCCO)c1ccc(F)c(F)c1Nc1ccccc1F [Example 25, 3,4-Difluoro-2-(2-fluoro-phenylamino)-N-(2-hydroxy-ethoxy)-benzamide]	52 nM	129.6 to 130.4 °C
O=C(NOCCO)c1cc(Cl)c(F)c(F)c1Nc1ccc(F)cc1F [Example 26, 5-Chloro-2-(2,4-difluoro-phenylamino)-3,4-difluoro-N-(2-hydroxy-ethoxy)-benzamide]	240 nM	161.6 to 162.4 °C
O=C(NOCCO)c1ccc(F)c(F)c1Nc1ccc(F)cc1F [Example 27, 2-(2,4-Difluoro-phenylamino)-3,4-difluoro-N-(2-hydroxy-ethoxy)-benzamide]	120 nM	141.1 to 141.6 °C
Cc1cc(I)ccc1Nc1cc(F)ccc1C(=O)NOCCCO [Example 28, 4-Fluoro-N-(3-hydroxy-propoxy)-2-(4-iodo-2-methyl-phenylamino)-benzamide]	120 nM	120.8 to 122.4 °C
Cc1cc(I)ccc1Nc1c(C(=O)NOCCCO)cc(Cl)c(F)c1F [Example 29, 5-Chloro-3,4-difluoro-N-(3-hydroxy-propoxy)-2-(4-iodo-2-methyl-phenylamino)-benzamide]	47 nM	155.2 to 156.6 °C
O=C(NOCCCO)c1ccc(F)cc1Nc1ccc(I)cc1Cl [Example 30]	130 nM	158.8 to 160.8 °C
Cc1cc(I)ccc1Nc1c(C(=O)NOCC(O)CO)cc(Cl)c(F)c1F (stereo not drawn) [Example 35, 5-Chloro-N-(2,3-dihydroxy-propoxy)-3,4-difluoro-2-(4-iodo-2-methyl-phenylamino)-benzamide]	6 nM	67 to 69 °C
Cc1cc(I)ccc1Nc1c(C(=O)NOCCC(O)CO)cc(Cl)c(F)c1F (stereo not drawn) [Example 36, 5-Chloro-N-(3,4-dihydroxy-butoxy)-3,4-difluoro-2-(4-iodo-2-methyl-phenylamino)-benzamide]	53 nM	135 to 138 °C
O=C(NOCCC(O)CO)c1cc(Cl)c(F)c(F)c1Nc1ccc(I)cc1Cl (stereo not drawn) [Example 37, 5-Chloro-2-(2-chloro-4-iodo-phenylamino)-N-(3,4-dihydroxy-butoxy)-3,4-difluoro-benzamide]	30 nM	146 to 148 °C
CC1(C)OCC(CONC(=O)c2ccc(F)c(F)c2Nc2ccc(I)cc2F)O1 (stereo not drawn) [Example 38, N-(2,2-Dimethyl-[1,3]dioxolan-4-ylmethoxy)-3,4-difluoro-2-(2-fluoro-4-iodo-phenylamino)-benzamide]	> 1000 nM	114 to 115 °C
O=C(NOCC(O)CO)c1ccc(F)c(F)c1Nc1ccc(Cl)cc1F (stereo not drawn) [Example 45, 2-(4-Chloro-2-fluoro-phenylamino)-N-(2,3-dihydroxy-propoxy)-3,4-difluoro-benzamide]	19 nM	114 to 114.9 °C
CC1(C)OCC(ONC(=O)c2ccc(F)c(F)c2Nc2ccc(I)cc2F)CO1 [Example 46, N-(2,2-Dimethyl-[1,3]dioxan-5-yloxy)-3,4-difluoro-2-(2-fluoro-4-iodo-phenylamino)-benzamide]	582 nM	154 to 155 °C

The next compounds have a lower IC50 (MEK) than those just listed; values first:

IC50 (MEK)	melting point	Compound
3 nM	181 to 183 °C	Cc1cc(I)ccc1Nc1c(C(=O)NOCCO)ccc(F)c1F [Example 2, 3,4-Difluoro-N-(2-hydroxy-ethoxy)-2-(4-iodo-2-methyl-phenylamino)-benzamide]
4 nM	173 to 175 °C	O=C(NOCCO)c1ccc(F)c(F)c1Nc1ccc(I)cc1Cl [Example 3, 2-(2-Chloro-4-iodo-phenylamino)-3,4-difluoro-N-(2-hydroxy-ethoxy)-benzamide]
5 nM	183 to 184.5 °C	O=C(NOCCO)c1cc(F)c(F)c(F)c1Nc1ccc(I)cc1Cl [Example 6, 2-(2-Chloro-4-iodo-phenylamino)-3,4,5-trifluoro-N-(2-hydroxy-ethoxy)-benzamide]
5 nM	174 to 176 °C	O=C(NOCCO)c1cc(Cl)c(F)c(F)c1Nc1ccc(I)cc1 [Example 7, 5-Chloro-3,4-difluoro-N-(2-hydroxy-ethoxy)-2-(4-iodo-phenylamino)-benzamide]
0.3 nM	117 to 119 °C	O=C(NOCCO)c1ccc(F)cc1Nc1ccc(I)cc1F [Example 8, 4-Fluoro-2-(2-fluoro-4-iodo-phenylamino)-N-(2-hydroxy-ethoxy)-benzamide]
0.3 nM	180 to 180.5 °C	O=C(NOCCO)c1cc(Cl)c(F)c(F)c1Nc1ccc(I)cc1F [Example 10, 5-Chloro-3,4-difluoro-2-(2-fluoro-4-iodo-phenylamino)-N-(2-hydroxy-ethoxy)-benzamide]
2 nM	189 to 190 °C	O=C(NOCCO)c1cc(Br)c(F)c(F)c1Nc1ccc(I)cc1F [Example 11, 5-Bromo-3,4-difluoro-2-(2-fluoro-4-iodo-phenylamino)-N-(2-hydroxy-ethoxy)-benzamide]
2 nM	208.2 to 209.6 °C	Cc1cc(I)ccc1Nc1c(C(=O)NOCCO)cc(Br)c(F)c1F [Example 13, 5-Bromo-3,4-difluoro-N-(2-hydroxy-ethoxy)-2-(4-iodo-2-methyl-phenylamino)-benzamide]
2 nM	190.2 to 200.2 °C	O=C(NOCCO)c1cc(Br)c(F)c(F)c1Nc1ccc(I)cc1Cl [Example 14, 5-Bromo-2-(2-chloro-4-iodo-phenylamino)-3,4-difluoro-N-(2-hydroxy-ethoxy)-benzamide]
1 nM	199.1 to 200.8 °C	Cc1cc(I)ccc1Nc1c(C(=O)NOCCO)cc(Cl)c(F)c1F [Example 15]
1 nM	173 to 175 °C	O=C(NOCCO)c1cc(Br)c(F)cc1Nc1ccc(I)cc1F [Example 19]
3 nM	178 to 181 °C	O=C(NOCCO)c1cc(Cl)c(F)c(F)c1Nc1ccc(I)cc1Cl [Example 20, 5-Chloro-2-(2-chloro-4-iodo-phenylamino)-3,4-difluoro-N-(2-hydroxy-ethoxy)-benzamide]
1.8 nM	185 to 187 °C	O=C(NOCCO)c1cc(F)c(F)c(F)c1Nc1ccc(I)cc1F [Example 21, 3,4,5-Trifluoro-2-(2-fluoro-4-iodo-phenylamino)-N-(2-hydroxy-ethoxy)-benzamide]
5 nM	131.4 to 131.9 °C	O=C(NOCCCCO)c1ccc(F)c(F)c1Nc1ccc(I)cc1F [Example 33]
2.7 nM	173 to 175 °C	O=C(NOCC(O)CO)c1ccc(F)cc1Nc1ccc(I)cc1F (stereo not drawn) [Example 42, N-(2,3-Dihydroxy-propoxy)-4-fluoro-2-(2-fluoro-4-iodo-phenylamino)-benzamide]
1.8 nM	157 to 160 °C	O=C(NOCC(O)CO)c1cc(F)c(F)c(F)c1Nc1ccc(I)cc1F (stereo not drawn) [Example 43, N-(2,3-Dihydroxy-propoxy)-3,4,5-trifluoro-2-(2-fluoro-4-iodo-phenylamino)-benzamide]
3 nM	110 to 117 °C (dec.)	O=C(NOCC(O)CO)c1ccc(F)c(F)c1Nc1ccc(Br)cc1F (stereo not drawn) [Example 44]
1 nM	111 to 114 °C	O=C(NOC(CO)CO)c1ccc(F)c(F)c1Nc1ccc(I)cc1F [Example 47, 3,4-Difluoro-2-(2-fluoro-4-iodo-phenylamino)-N-(2-hydroxy-1-hydroxymethyl-ethoxy)-benzamide]
1.6 nM	173 to 175 °C	O=C(NOC(CO)CO)c1cc(Cl)c(F)c(F)c1Nc1ccc(I)cc1F [Example 48, 5-Chloro-3,4-difluoro-2-(2-fluoro-4-iodo-phenylamino)-N-(2-hydroxy-1-hydroxymethyl-ethoxy)-benzamide]
